Results taken from US20080004310A1, “LYOPHILIZED PHARMACEUTICAL COMPOSITION” (priority 2006, published 2008).
Structures can show the parent of a compound that is named as a salt. Where two headings read alike, the source gives them in different places.

How the values were obtained:
[1] = Accelerated aging of lyophilized composition (assay of active components after reconstitution); type: physicochemical; settings: accelerated conditions 40° C./75% RH
Method: Aliquots of the clear solution (3 ml) were filtered through a sterilizing 0.22 um filter into lyophilization vials (5 ml). The filled lyophilization vials were topped, but not sealed, with lyophilization stoppers and freeze-dried according the following procedure. The topped vials were placed into a commercial freeze-drier. The temperature of the drier was lowered to about −40° C. and maintained at that temperature for at least 6 hours. […] Following the three temperature increasing steps, the vials were sealed under vacuum, the freeze-drier was returned to normal atmospheric pressure, and the vials were removed from the freeze-drier. In accelerated aging conditions, the active components of the lyophilized compositions of the present invention have an extended shelf live of as much as 120 days. The accelerated aging data for one, three, and four weeks is set out in Table 1. In Table 1, each week of accelerated aging corresponds to about one month of normal aging. [table]

[2] = test system: patient with erectile dysfunction; test: Treatment of a patient having erectile dysfunction by injection of the reconstituted lyophilized composition; type: in vivo; settings: for treatment effect on erectile dysfunction: general method of treatment of Example 3, single lyophilized agent only
Source text: In one embodiment, a lyophilized composition may be used to treat a patient having erectile dysfunction. The lyophilized composition is formed by first providing an erectile inducing amount of at least one lyophilized compound selected from papverine hydrochloride, phentolamine mesylate, and alprostadil. The lyophilized composition is then reconstituted with a pharmaceutically acceptable solvent, such as sterilized water, to produce a reconstituted pharmaceutical solution. The reconstituted pharmaceutical solution is then administered to the patient. Once the lyophilized compounds are reconstituted, the reconstituted pharmaceutical solution may be administered to the patient by a variety of methods, including, but not limited to orally or by injection. In one embodiment, the composition is administered by injection. Any suitable method of injection, such as intracavernosal, intravenous, intraarterial, intramuscular, intraperitoneal, intraportal, intradermal or subcutaneous may be used.
A person, 75 kilogram (kg) […] patient is diagnosed with having erectile dysfunction. The patient is instructed to inject the lypholized preparation of 30 mg/ml papaverine, 1.0 mg/ml phentolamine mesylate, and 10 μg/ml alprostadil on a daily basis, if this is the intended frequency of sexual activity. The lyophilized papaverine, phentolamine, and alprostadil are prepared according to Example 1. The patient is examined after one month.
A 70 kg patient is apparently in good health. They present complaints of a loss of sexual desire and frequent erectile dysfunction. They report that although they are periodically interested in initiating sexual relations, on most occasions they are unable to maintain a high level of interest sufficiently long to initiate or to adequately respond to their spouse's initiating sexual activity. […] 1.0 mg/ml of lyophilized phentolamine is given to […]. The reconstituted phentolamine is injected about 0.5 hours before the patient intended to engage in sexual activity. The patient is examined after one month. They report that they take the drug combination 2-3 times per week.
Following the general method of treatment described in Example 3, non-critical variations are made to the composition of Example 3 such that only 10 μg/ml of lyophilized alprostadil is used.
Following the general method of treatment described in Example 3, non-critical variations are made to the composition of Example 3 such that only 30 mg/ml of lyophilized papaverine hydrochloride is used.

[3] = physchem
[4] = general solubility, not lyophilized; cited from earlier work
[5] = Week One, each week about one month of normal aging

% of Expected ([1]; Week Four) [%] | Assayed Conc. ([1]; Week Four) [mg/mL] | % of Expected ([1]; Week One) [%] | Assayed Conc. ([1]; Week One) [mg/mL] | % of Expected ([1]; Week Three) [%] | Assayed Conc. ([1]; Week Three) | SMILES | treatment effect on erectile dysfunction [2] | Assayed Conc. [1, 5] [mg/mL] | solubility [3] [mg/mL] | solubility [4] | maintenance of erection ([2]; 70 kg patient, 1.0 mg/ml, injected about 0.5 hours before sexual activity, 2-3 times per week, examined after one month) | sexual desire / motivation ([2]; 70 kg patient, 1.0 mg/ml, injected about 0.5 hours before sexual activity, examined after one month)
95 | 0.0095 | 105 | 0.0105 | 100 | 0.01 mg/mL | CCCCC[C@H](O)/C=C/[C@H]1[C@H](O)CC(=O)[C@@H]1CCCCCCC(=O)O [Alprostadil, alprostadil] | same positive treatment effect | – | – | – | – | –
100 | 1.0 | 100 | – | 92 | .92 mg/mL | Cc1ccc(N(CC2=NCCN2)c2cccc(O)c2)cc1 [Phentolamine Mesylate, phentolamine mesylate] | – | 1.0 | – | – | no difficulty maintaining an erection to completion of sexual intercourse | feels motivated to initiate sexual activity

SMILES | % of Expected ([1]; Week Four) [%] | Assayed Conc. ([1]; Week Four) [mg/mL] | % of Expected ([1]; Week One) [%] | Assayed Conc. ([1]; Week One) [mg/mL] | % of Expected ([1]; Week Three) [%] | Assayed Conc. ([1]; Week Three) | treatment effect on erectile dysfunction [2] | Assayed Conc. [1, 5] [mg/mL] | solubility [3] [mg/mL] | solubility [4] | maintenance of erection ([2]; 70 kg patient, 1.0 mg/ml, injected about 0.5 hours before sexual activity, 2-3 times per week, examined after one month) | sexual desire / motivation ([2]; 70 kg patient, 1.0 mg/ml, injected about 0.5 hours before sexual activity, examined after one month)
COc1ccc(Cc2nccc3cc(OC)c(OC)cc23)cc1OC [Papaverine HCl, papaverine hydrochloride] | 78 | 23.4 | 65.7 | – | 67.7 | 20.3 mg/mL | same positive treatment effect | 19.7 | ~90 | about 30 mg/ml | – | –
